Key:
ABCG2 [1] = target: T1, ABCG2 (Homo sapiens, UniProt Q9UNQ0); experiment: Inhibition of recombinant human GFP-fused ABCG2 expressed in MDCK2 cells assessed as reduction in Hoechst 33342 efflux at 10 uM preincubated for 30 mins followed by Hoechst 33342 addition measured immediately at 60 sec time interval for 120 mins by fluorescence assay relative to XR9577; format: cell-based, MDCK-II; details: MDCK2 cells expressing recombinant human GFP-fused ABCG2, probe Hoechst 33342, read-out: Imax
T1 sequence (Q9UNQ0 whole entry): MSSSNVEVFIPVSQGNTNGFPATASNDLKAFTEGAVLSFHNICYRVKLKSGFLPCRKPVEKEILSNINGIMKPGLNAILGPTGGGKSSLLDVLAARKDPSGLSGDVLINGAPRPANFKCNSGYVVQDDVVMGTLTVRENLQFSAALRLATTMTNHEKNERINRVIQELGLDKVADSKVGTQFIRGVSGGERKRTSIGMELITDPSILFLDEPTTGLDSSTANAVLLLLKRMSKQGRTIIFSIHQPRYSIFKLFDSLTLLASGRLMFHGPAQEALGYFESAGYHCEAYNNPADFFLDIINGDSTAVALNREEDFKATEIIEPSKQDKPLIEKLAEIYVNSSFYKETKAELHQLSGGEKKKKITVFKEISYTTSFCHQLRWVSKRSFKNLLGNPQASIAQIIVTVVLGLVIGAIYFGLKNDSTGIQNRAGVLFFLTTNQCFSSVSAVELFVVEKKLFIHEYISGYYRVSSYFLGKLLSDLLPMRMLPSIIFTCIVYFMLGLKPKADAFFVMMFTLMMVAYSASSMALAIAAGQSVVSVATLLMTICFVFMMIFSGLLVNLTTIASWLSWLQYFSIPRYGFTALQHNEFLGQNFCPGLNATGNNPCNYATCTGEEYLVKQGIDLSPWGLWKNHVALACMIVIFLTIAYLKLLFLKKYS

[2] = target: T2, Broad substrate specificity ATP-binding cassette transporter ABCG2 (Homo sapiens, UniProt Q9UNQ0); experiment: Inhibition of recombinant human GFP-fused ABCG2 expressed in MDCK2 cells assessed as reduction in Hoechst 33342 efflux preincubated for 30 mins followed by Hoechst 33342 addition measured immediately at 60 sec time interval for 120 mins by fluorescence assay; format: cell-based, MDCK-II
T2 sequence (Q9UNQ0 whole entry): T1 sequence (Q9UNQ0 whole entry)

ABCB1 [3] = target: T3, ABCB1 (Homo sapiens, UniProt P08183); experiment: Inhibition of ABCB1 in human A2780/ADR cells assessed as reduction in calcien-AM efflux at 10 uM preincubated for 30 mins followed by calcien-AM addition measured immediately at 60 sec time interval for 60 mins by fluorescence assay relative to cyclosporine A; format: cell-based; details: probe calcein-AM (printed calcien-AM), read-out: Imax
T3 sequence (P08183 whole entry): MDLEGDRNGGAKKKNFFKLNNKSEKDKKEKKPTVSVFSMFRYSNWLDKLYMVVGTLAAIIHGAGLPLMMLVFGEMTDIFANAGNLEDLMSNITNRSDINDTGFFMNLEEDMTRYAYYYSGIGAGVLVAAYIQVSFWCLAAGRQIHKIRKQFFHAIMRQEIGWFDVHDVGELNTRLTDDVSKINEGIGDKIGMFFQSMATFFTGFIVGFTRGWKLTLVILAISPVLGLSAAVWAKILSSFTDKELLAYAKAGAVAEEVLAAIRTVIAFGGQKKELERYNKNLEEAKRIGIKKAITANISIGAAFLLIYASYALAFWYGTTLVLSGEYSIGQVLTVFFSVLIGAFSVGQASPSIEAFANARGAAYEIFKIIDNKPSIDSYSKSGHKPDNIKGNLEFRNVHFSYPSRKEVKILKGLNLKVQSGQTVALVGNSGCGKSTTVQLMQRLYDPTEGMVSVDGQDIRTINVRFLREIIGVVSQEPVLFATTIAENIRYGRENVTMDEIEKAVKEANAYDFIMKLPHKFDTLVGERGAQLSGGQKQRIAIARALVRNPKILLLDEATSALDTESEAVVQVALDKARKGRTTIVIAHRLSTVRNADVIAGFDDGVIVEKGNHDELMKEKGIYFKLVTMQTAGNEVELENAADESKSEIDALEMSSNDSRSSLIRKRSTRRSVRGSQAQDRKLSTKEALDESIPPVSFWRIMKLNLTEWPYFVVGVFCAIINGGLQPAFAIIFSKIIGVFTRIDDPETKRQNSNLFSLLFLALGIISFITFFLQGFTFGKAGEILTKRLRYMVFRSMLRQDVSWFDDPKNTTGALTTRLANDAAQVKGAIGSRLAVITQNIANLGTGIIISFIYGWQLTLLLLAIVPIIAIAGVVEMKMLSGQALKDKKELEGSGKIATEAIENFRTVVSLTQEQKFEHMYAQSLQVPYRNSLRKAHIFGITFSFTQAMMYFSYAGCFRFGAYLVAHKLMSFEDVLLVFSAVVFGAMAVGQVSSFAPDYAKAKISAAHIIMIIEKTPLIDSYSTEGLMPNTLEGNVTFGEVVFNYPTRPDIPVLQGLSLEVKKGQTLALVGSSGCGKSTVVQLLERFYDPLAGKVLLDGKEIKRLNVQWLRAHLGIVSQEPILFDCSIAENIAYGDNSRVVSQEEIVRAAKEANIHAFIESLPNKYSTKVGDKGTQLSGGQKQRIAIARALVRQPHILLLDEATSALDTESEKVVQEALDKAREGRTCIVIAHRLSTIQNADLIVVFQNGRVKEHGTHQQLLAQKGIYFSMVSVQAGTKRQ

[4] = target: ATP-dependent translocase ABCB1 (Homo sapiens, UniProt P08183); experiment: Inhibition of ABCB1 in human A2780/ADR cells assessed as reduction in calcien-AM efflux preincubated for 30 mins followed by calcien-AM addition measured immediately at 60 sec time interval for 60 mins by fluorescence assay; format: cell-based
Chain of ATP-dependent translocase ABCB1 (P08183 whole entry, the tested form may be a part): as the sequence (P08183 whole entry) above

ABCG2 [5] = target: T1, ABCG2; experiment: Inhibition of recombinant human GFP-fused ABCG2 expressed in MDCK2 cells assessed as reduction in pheophorbide A efflux at 10 uM preincubated for 30 mins followed by pheophorbide A addition measured after 2 hrs by flow cytometry relative to XR9577; format: cell-based, MDCK-II; details: MDCK2 cells expressing recombinant human GFP-fused ABCG2, probe pheophorbide A, read-out: Imax
[6] = target: T2, Broad substrate specificity ATP-binding cassette transporter ABCG2; experiment: Inhibition of recombinant human GFP-fused ABCG2 expressed in MDCK2 cells assessed as reduction in pheophorbide A efflux preincubated for 30 mins followed by pheophorbide A addition measured after 2 hrs by flow cytometry; format: cell-based, MDCK-II
ABCB1 [7] = target: T3, ABCB1; experiment: Potency index, ratio of cyclosporine A IC50 to compound IC50 for ABCB1 in human A2780/ADR cells; format: cell-based; details: read-out: Ratio IC50
[8] = target: T2, Broad substrate specificity ATP-binding cassette transporter ABCG2; experiment: Non-competitive inhibition of recombinant human GFP-fused ABCG2 expressed in MDCK2 cells assessed as reduction in pheophorbide A efflux at 0.0178 to 0.1 uM preincubated for 30 mins followed by addition of varying levels of pheophorbide A by Lineweaver-Burk plot analysis; format: cell-based; details: mdck-ii
[9] = target: T2, Broad substrate specificity ATP-binding cassette transporter ABCG2; experiment: Competitive inhibition of recombinant human GFP-fused ABCG2 expressed in MDCK2 cells assessed as reduction in Hoechst 33342 efflux at 0.01 to 0.1 uM preincubated for 30 mins followed by addition of varying levels of Hoechst 33342 by Lineweaver-Burk plot analysis; format: cell-based; details: mdck-ii
ABCG2 [10] = target: T1, ABCG2; experiment: Potency index, ratio of Ko143 IC50 to compound IC50 for recombinant human GFP-fused ABCG2 expressed in MDCK2 cells assessed as reduction in Hoechst 33342 efflux; format: cell-based; details: MDCK2 cells expressing recombinant human GFP-fused ABCG2, probe Hoechst 33342, read-out: Ratio IC50
ABCG2 [11] = target: T1, ABCG2; experiment: Potency index, ratio of Ko143 IC50 to compound IC50 for recombinant human GFP-fused ABCG2 expressed in MDCK2 cells assessed as reduction in pheophorbide A efflux; format: cell-based; details: MDCK2 cells expressing recombinant human GFP-fused ABCG2, probe pheophorbide A, read-out: Ratio IC50

Emax at 2 h, 10 µM (ABCG2 [1]) [%]	IC50 [2] [nM]	inhibition at 1 h, 10 µM (ABCB1 [3]) [%]	IC50 [4] [nM]	Emax at 2 h, 10 µM (ABCG2 [5]) [%]	IC50 [6] [nM]	inhibition (INH) [8]	inhibition (INH) [9]	SMILES	selectivity ratio (ABCB1 [7])	selectivity ratio (ABCG2 [10])	selectivity ratio (ABCG2 [11])
72	308							CCOc1ccc(-n2nnc(-c3ccccc3NC(=O)c3ccccc3[N+](=O)[O-])n2)cc1			
76	266	≤ 25	6200	61	311			COc1ccc(-n2nnc(-c3ccccc3NC(=O)c3ccccc3[N+](=O)[O-])n2)cc1			
57	280	< 10		76	458			O=C(Nc1ccccc1-c1nnn(-c2ccccc2)n1)c1ccccc1[N+](=O)[O-]			
100	212	≤ 25	8140	85	96.6			CCCc1ccc(C(=O)Nc2ccccc2-c2nnn(-c3ccccc3)n2)cc1			
100	4390			100	3630			O=C(Nc1ccccc1-c1nnn(-c2ccccc2)n1)c1ccc(C(F)(F)F)cc1			
80	330	≤ 25	10200					COc1ccc(-n2nnc(-c3ccccc3NC(=O)c3ccc(C(F)(F)F)cc3)n2)cc1OC			
57	168			56	247			COc1ccc(-n2nnc(-c3ccccc3NC(=O)c3cccc([N+](=O)[O-])c3)n2)cc1			
	> 10000							CSc1ccc(-n2nnc(-c3ccccc3NC(=O)c3ccc(C(F)(F)F)cc3)n2)cc1			
97	136	≤ 25	19400	95	131			COc1ccc(C(=O)Nc2ccccc2-c2nnn(-c3ccc(C(C)C)cc3)n2)cc1			
91	221	≤ 25	9780	77	117			CSc1ccc(-n2nnc(-c3ccccc3NC(=O)c3ccccc3[N+](=O)[O-])n2)cc1			
	> 10000							CSc1ccc(-n2nnc(-c3ccccc3NC(=O)c3ccc([N+](=O)[O-])cc3)n2)cc1			
59	223							COc1ccc(C(=O)Nc2ccccc2-c2nnn(-c3ccc(Cl)cc3)n2)cc1			
	> 10000							CC(C)c1ccc(-n2nnc(-c3ccccc3NC(=O)c3ccc(C(F)(F)F)cc3)n2)cc1			

More lines, now with the values behind:

SMILES	Emax at 2 h, 10 µM (ABCG2 [1]) [%]	IC50 [2] [nM]	inhibition at 1 h, 10 µM (ABCB1 [3]) [%]	IC50 [4] [nM]	Emax at 2 h, 10 µM (ABCG2 [5]) [%]	IC50 [6] [nM]	inhibition (INH) [8]	inhibition (INH) [9]	selectivity ratio (ABCB1 [7])	selectivity ratio (ABCG2 [10])	selectivity ratio (ABCG2 [11])
COc1ccc(C(=O)Nc2ccccc2-c2nnn(-c3ccc(OC)c(OC)c3)n2)cc1	100	319	≤ 25	3200							
CCCc1ccc(C(=O)Nc2ccccc2-c2nnn(-c3ccc(O)cc3)n2)cc1	106	204	≤ 25	434	107	129			3		
CCCc1ccc(C(=O)Nc2ccccc2-c2nnn(-c3ccc(SC)cc3)n2)cc1	76	783			69	679					
COc1ccc(C(=O)Nc2ccccc2-c2nnn(-c3ccc(Oc4ccccc4)cc3)n2)cc1		> 10000									
COc1ccc(C(=O)Nc2ccccc2-c2nnn(-c3ccccc3)n2)cc1	101	200	≤ 25	5470	93	208	Active	Active			
O=C(Nc1ccccc1-c1nnn(-c2ccccc2)n1)c1ccccc1	90	66.9	≤ 25	21800	109	64				3 to 4	3 to 4
CCCc1ccc(C(=O)Nc2ccccc2-c2nnn(-c3ccc(Oc4ccccc4)cc3)n2)cc1		> 10000									
CCOc1ccc(-n2nnc(-c3ccccc3NC(=O)c3ccc(OC)cc3)n2)cc1	50	793									
O=C(Nc1ccccc1-c1nnn(-c2ccccc2)n1)c1cccc([N+](=O)[O-])c1	91	127	≤ 25	9400	98	123					
COc1ccc(-n2nnc(-c3ccccc3NC(=O)c3ccccc3)n2)cc1OC	104	230	≤ 25	4030	95	212					
O=C(Nc1ccccc1-c1nnn(-c2ccccc2)n1)c1ccc([N+](=O)[O-])cc1	60	150			69	321					
COc1ccc(C(=O)Nc2ccccc2-c2nnn(-c3ccccc3)n2)cc1OC	102	832			86	511					
COc1ccc(C(=O)Nc2ccccc2-c2nnn(-c3ccc(SC)cc3)n2)cc1	100	132	≤ 25	4200	85	251					
O=C(Nc1ccccc1-c1nnn(-c2ccc(Cl)cc2)n1)c1ccc([N+](=O)[O-])cc1		> 10000									
CCCc1ccc(C(=O)Nc2ccccc2-c2nnn(-c3ccc(OC(=O)c4ccc(CCC)cc4)cc3)n2)cc1		> 10000									
COc1ccc(C(=O)Nc2ccccc2-c2nnn(-c3ccc(OC)cc3)n2)cc1	100	199	≤ 25	2880	92	300					
